Results as given in patent US11421145B2, “Oil recovery methods using a formulation containing an unsaturated zwitterionic surfactant and a polymer” (King Fahd University of Petroleum and Minerals, priority 2019, dated 2022).

Experiment: Solubility and compatibility in seawater (SW) and formation water (FW)
Type: physicochemical
Settings: seawater and formation water
Experimental: Synthetic seawater (SW) and formation water (FW) were prepared using NaCl, Na2SO4, NaHCO3, CaCl2, and MgCl2. All the salts were obtained from Sigma-Aldrich, USA.
Solubility and compatibility of the surfactant in the reservoir and injection brine are the primary considerations for further evaluation of the unsaturated surfactant for EOR application. If the surfactant is not soluble in the seawater and formation brine, it can be rejected at the initial stage. […] After the compatibility test with SW and FW, the short-term thermal stability of the synthesized unsaturated surfactant was evaluated using TGA analysis. […] Only 3% weight loss was observed up to 200° C., which was mainly associated with solvent and water evaporation. […] TGA results helped to identify and eliminate the surfactants that had lower decomposition temperatures. However, for real field applications, long-term thermal stability of the surfactant must be considered, as the surfactant residence time in the reservoir could vary from a few days to a few months.

With CCCCCCCCCCCCCCCCCC(=O)NCCC[N+](C)(C)CCCS(=O)(=O)[O-] [3-(N-stearamidopropyl-N,N-dimethylammonium)propanesulfonate, reference compound] the “solubility in SW and FW” value was “poor solubility”.
